Measurements: PMC4841536, “Characterization of the Anti-HCV Activities of the New Cyclophilin Inhibitor STG-175” (PLoS ONE, 2016)

Legend:
[1] = alamarBlue cytotoxicity (CC50), GT3a replicon cell line; details: human
Description: The anti-HCV activity of STG-175 was conducted using a panel of luciferase reporter replicon cell lines including GT1a, GT1b, GT2a, GT3a and GT4a as we described previously. The GT1a subgenomic renilla luciferase reporter replicon H77 RLucP (7) was supplied by Dr. Delaney. The GT1b subgenomic firefly luciferase reporter replicon pFK-I389/NS3-3’ [29] was supplied by Dr. Bartenschlager. The GT1B subgenomic NS3, NS5A and NS5B mutants were created via homologous recombination using the In-Fusion HD Cloning kit (Clontech) as we described previously. The GT2a genomic luciferase reporter replicon Luc-Neo-JFH-1 was generated as previously. The plasmid pFK-Luc-JFH1 was supplied from Drs. […] The CellTiter-Fluor™ Cell Viability Assay is a non-lytic fluorescence assay, which measures the number of live cells. […] Luciferase activity was determined using the Luciferase Assay System (Promega) in a Berthold luminometer. […] Viable cells continuously convert resazurin to resorufin, increasing the overall fluorescence and color of the media surrounding cells.
Fig 2 Anti-HCV activities of STG-175 among GTs. […] Luciferase activity was determined using the Luciferase Assay System in a Berthold luminometer. […] Data are expressed as mean of relative light units and calculated EC50s are presented. […]

[2] = system: wild-type Con1 (GT1b) replicon colonies; experiment: Degree of resistance of replicon colonies, wild-type; format: cell-based; details: Hepatitis C virus, read-out: EC50 of STG-175, WT colonies
Description: Huh-7 cells expressing subgenomic Con1 (GT1b) replicon were incubated with STG-175 and 100 μg/ml of G418 in 10 cm CellBIND™ plates (Corning). Cells were split every 3 days at 1:6 and G418 concentration was increased sequentially to 200 and 300 μg/mL. […] At this point, medium was changed every 3–4 days until emergence of resistant clones. Clones were individually transferred to 24-well CellBIND using cloning disks. […] Each clone was split in 2 identical plates and was separately maintained under 0.5 or 1.0 μM STG-175 and 100 μg/mL of G418. Once the colonies were established, G418 concentration was increased to 300 μg/mL. […] Briefly, total RNA was prepared using the RNeasy Plus Mini Kit as per manufacturer’s recommendation. […] The amplicons were gel purified, quantitated and sequenced using primers located internally in NS5A or NS5B reading to the 5’ and 3’ ends. Sequences were assembled and analyzed using the ClustalW algorithm within the MacVector program. […]
Fig 3 Replicon clearance, replication rebound and resistance analyses. […] At each passage, samples of cells were collected, RNA extracted and analyzed by RT-PCR for HCV RNA levels. […] At each passage, sample of cells were collected, RNA extracted and analyzed by RT-PCR for HCV RNA levels. […] Data are expressed as number of HCV RNA copies per cell. […] Data are expressed as mean of relative light units and calculated EC50s are presented. […]

[3] = system: HBV in mixed PBMCs, NTCP-Huh7 and Huh7.5.1 cells; experiment: Dual/triple co-infection in cell co-cultures, HBV readout; format: cell-based, hepatitis B virus

## CC=CCC(C)C(O)C1C(=O)NC(CC)C(=O)N(C)C(CSCCCCO)C(=O)N(C)C(CC(C)(C)O)C(=O)NC(C(C)C)C(=O)N(C)C(CC(C)C)C(=O)NC(C)C(=O)NC(C)C(=O)N(C)C(CC(C)C)C(=O)N(C)C(CC(C)C)C(=O)N(C)C(C(C)C)C(=O)N1C (stereo not shown) [STG-175]
[1]
  CC50 at 72 h: > 10 µM
[2]
  EC50: 0.0157 µM
[3]; STG-175 added together with virus
  HBV infection in co-infection: greatly attenuated
[3]; added 3 days post-infection and then every 3 days
  pre-established HBV infection in co-infection: decreased the viral expansion
